# Reference: PMC8037586, “Synthesis and Enantioselective Pharmacokinetic/Pharmacodynamic Analysis of New CNS-Active Sulfamoylphenyl Carbamate Derivatives” (International Journal of Molecular Sciences, 2021)
# Like-named read-outs stand apart in the source and are kept apart here.
# How the values were obtained:
# [1] = target: T1, human carbonic anhydrase (CA) isoform I (Homo sapiens, UniProt P00915); parameters: method as in PMID 28275953, PMID 31124389; conditions: previously reported data; cited from earlier work
# T1 sequence (P00915 whole entry, canonical isoform): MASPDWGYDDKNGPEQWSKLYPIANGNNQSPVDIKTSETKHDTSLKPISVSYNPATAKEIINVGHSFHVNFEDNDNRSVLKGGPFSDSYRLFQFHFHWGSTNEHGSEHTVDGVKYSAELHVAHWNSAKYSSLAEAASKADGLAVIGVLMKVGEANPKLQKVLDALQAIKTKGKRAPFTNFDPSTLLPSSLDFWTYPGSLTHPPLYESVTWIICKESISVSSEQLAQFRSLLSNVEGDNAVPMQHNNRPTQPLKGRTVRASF
# rats [2] = test system: rats; parameters: method as in PMID 28275953, PMID 31124389; conditions: cited from earlier work
# [3] = test system: rat maximal electroshock test (MES); parameters: method as in PMID 28275953, PMID 31124389; conditions: cited from earlier work
# [4] = target: T2, human carbonic anhydrase (CA) isoform IV (Homo sapiens, UniProt P22748); parameters: method as in PMID 28275953, PMID 31124389; conditions: previously reported data; cited from earlier work
# T2 sequence (P22748 19-312): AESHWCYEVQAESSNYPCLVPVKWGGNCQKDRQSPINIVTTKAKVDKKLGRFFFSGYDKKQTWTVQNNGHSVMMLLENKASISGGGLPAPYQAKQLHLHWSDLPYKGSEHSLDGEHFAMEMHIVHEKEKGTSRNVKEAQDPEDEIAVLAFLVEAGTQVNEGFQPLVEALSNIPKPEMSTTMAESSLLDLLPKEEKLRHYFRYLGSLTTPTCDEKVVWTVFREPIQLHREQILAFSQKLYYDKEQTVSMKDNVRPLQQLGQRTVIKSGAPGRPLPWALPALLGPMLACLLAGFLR
# [5] = target: T3, human carbonic anhydrase (CA) isoform VII (Homo sapiens, UniProt P43166); parameters: method as in PMID 28275953, PMID 31124389; conditions: previously reported data; cited from earlier work
# T3 sequence (P43166 whole entry, canonical isoform): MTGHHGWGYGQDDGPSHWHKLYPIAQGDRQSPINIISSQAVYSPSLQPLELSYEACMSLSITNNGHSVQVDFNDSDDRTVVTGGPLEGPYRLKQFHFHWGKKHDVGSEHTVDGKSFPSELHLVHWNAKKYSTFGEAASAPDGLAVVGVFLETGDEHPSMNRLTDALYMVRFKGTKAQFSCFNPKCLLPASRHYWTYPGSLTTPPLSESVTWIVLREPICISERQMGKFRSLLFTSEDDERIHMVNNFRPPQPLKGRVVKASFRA
# [6] = target: T4, human carbonic anhydrase (CA) isoform II (Homo sapiens, UniProt P00918); parameters: method as in PMID 28275953, PMID 31124389; conditions: previously reported data; cited from earlier work
# [7] = target: T1, human carbonic anhydrase (CA) isoform I; assay: Stopped-flow CO2 hydrase assay, CA I; assay type: biochemical; conditions: for Ki: means ± SEM of 3 different assays
# [8] = test system: rat maximal electroshock test (MES); assay: Rat maximal electroshock (MES) anticonvulsant test; assay type: in vivo; conditions: po, rats dosed p.o., read-out: MES-ED50 [95% CI]
# Procedure: The experiments with the MES model were conducted in male Sprague Dawley rats weighing 100–120 g (Charles River Laboratories, Wilmington, MA, USA) as previously described. Eight rats were tested per dose in the dose–response curve in order to determine the ED50 value of each compound. The experiments were approved by the Ethical Committee of the NIH-ETSP program where the anticonvulsant activity was tested.
# [9] = Pharmacokinetics from brain levels after i.p. administration to rats; assay type: in vivo, rat; conditions: i.p. 80 mg/kg; for AUCinf / AUC(0-inf) / CL/F / Cmax / MRT / Tmax / half-life / Vd/F: brain levels; for AUCinf / AUC(0-inf): 80 mg/kg; for AUC(0-inf) / Kp / CL/F / Cmax / MRT / Tmax / half-life / Vd/F: male, Sprague Dawley, rat, ip; for Kp: AUCbrain/AUCplasma, read-out: Brain-to-plasma (AUCinf) ratio; for Vd/F: read-out: Vss/F
# Procedure: (§1) The pharmacokinetics (PK) of racemic-MBPC and its two individual enantiomers were studied following i.p. administration (80 mg/kg) to male Sprague Dawley rats weighing approximately 200–250 g, and their major PK parameters were estimated. The PK experiments were approved by the Ethical Committee of the Hebrew University’s Faculty of Medicine. The dose was administered to rats in multisol that is a mixture of propylene glycol, alcohol (EtOH), and water for injection at a ratio of 8:1:1. The study details were as described previously. Plasma and brain levels of racemic-MBPC and its individual enantiomers were monitored at 20, 40, 60, 90, 120, 160, 180, 200, 220, and 260 min after dosing. Two rats were sacrificed at each time point.
# (§2) Plasma and brain concentrations of each compound were quantified by an HPLC assay. The HPLC analysis was performed on a system (2695 Separation Module; Waters, Milford, MA, USA) with a photodiode array UV detector (2996 PDA Detector; Waters, Milford, MA, USA) conditioned as follows: Kinetex, 5 u EVO C18 100 A, 1504.6-mm column (PhenomenexVR, Torrance, CA, USA). Linear gradients (5–95% acetonitrile content) with H2O (0.1% formic acid) and acetonitrile were used as the eluents with a flow rate of 1 mL/min at 20 °C. The compounds and the internal standard were detected at 250 nm. Plasma and brain concentrations of MBPC and its two individual enantiomers were quantified as previously described, [29].
# (§3) The PK parameters of each compound were calculated by non-compartmental analysis based on statistical moment theory using the PK software Phoenix Winnonlin Tripos L.P. (Pharsight Co., Mountain View, CA, USA) as previously described.
# [10] = target: T4, human carbonic anhydrase (CA) isoform II; assay: Stopped-flow CO2 hydrase assay, CA II; assay type: biochemical; conditions: for Ki: means ± SEM of 3 different assays
# [11] = Pharmacokinetics from plasma levels after i.p. administration to rats; assay type: in vivo, rat; conditions: i.p. 80 mg/kg; for CL/F / Cmax / MRT / Tmax / half-life / Vd/F / AUC(0-inf): male, Sprague Dawley, rat, ip; for Vd/F: read-out: Vss/F; for AUC(0-inf): plasma
# Procedure: as §1, §2, §3
# [12] = Enantiostability: extraction from rat plasma and optical rotation measurement; assay type: in vitro ADME; conditions: extracted from rat plasma; specific optical rotation compared to initial value
# Excerpt: MBPC was not included in such a series. […] The slightly better BPR of (S)-MBPC may contribute to its better rat anticonvulsant ED50 value. MBPC’s BPR values were better than that of (S)-MSPC but lower than those of racemic- and (R)-MSPC [10]. While (R)-MSPC has lower plasma and brain exposure compared to (S)-MSPC, the two MBPC enantiomers had similar brain permeability, with a slightly better BPR value for (S)-MBPC.
# rats [13] = assay: Minimal neurotoxicity (TD50) in rats; assay type: in vivo, rat; conditions: rats dosed p.o.
# Excerpt: (§4) Table 3 Quantitative anticonvulsant and minimal neurotoxicity data (ED50 and TD50 values) and protective indexes (PI) of […] (MBPC) and 3-methylpentyl(4-sulfamoylphenyl)carbamate (MSPC). in rats dosed p.o. or i.p. ^b. | column: Neurotoxicity-TD50 (mg/kg) [95% CI] ^a; Protective Index (PI = TD50/ED50)
# [14] = Minimal neurotoxicity (TD50) in rats; assay type: in vivo, rat; conditions: rat, in vivo, po; rats dosed p.o.; read-out: Neurotoxicity-TD50 [95% CI]
# Excerpt: as §4
# [15] = target: T2, human carbonic anhydrase (CA) isoform IV; assay: Stopped-flow CO2 hydrase assay, CA IV; assay type: biochemical; conditions: means ± SEM of 3 different assays
# [16] = target: T3, human carbonic anhydrase (CA) isoform VII; assay: Stopped-flow CO2 hydrase assay, CA VII; assay type: biochemical; conditions: for Ki: means ± SEM of 3 different assays
Structure (SMILES),Ki [1] [nM],Neurotoxicity-TD50 [95% CI] (rats [2]; rats dosed i.p.),Protective Index (PI = TD50/ED50) (rats [2]; rats dosed i.p.),MES-ED50 [95% CI] ([3]; rats dosed i.p.),MES-ED50 [95% CI] ([3]; rats dosed p.o.),Ki [4] [nM],Ki [5] [nM],Ki [6] [nM],Ki [7] [nM],ED50 [8] [mg/kg],AUCinf [9] [ng·h/mL],AUC(0-inf) ([9]; brain) [ng·h/mL],CL/F [9] [mL/min/kg],Cmax [9] [ng/mL],MRT [9] [h],Tmax [9] [h],half-life [9] [h],Vd/F [9] [L/kg],Ki [10] [nM],CL/F ([11]; plasma levels) [mL/min/kg],also measured
"CCC(C)CCOC(=O)Nc1ccc(S(N)(=O)=O)cc1 (racemic) [Racemic-MSPC, 3-methylpentyl(4-sulfamoylphenyl)carbamate]",77 ± 4.7,>250 mg/kg,>19,13 [8–22] mg/kg,28 [18–35] mg/kg,750 ± 42,351 ± 26,7.6 ± 0.5,–,–,–,–,–,–,–,–,–,–,–,–,Neurotoxicity-TD50 [95% CI] (rats [2]; rats dosed p.o.): >500 mg/kg; Protective Index (PI = TD50/ED50) (rats [2]; rats dosed p.o.): >18
CC[C@@H](C)OC(=O)Nc1ccc(S(N)(=O)=O)cc1 [(R)-MBPC],–,–,–,–,–,–,–,–,203 ± 13,39,30400,30000,43.3,11400,2.1,2.7,0.5,5.4,7.1 ± 0.4,55,"Kp ([9]; brain): 1.27; effectiveness relative to its (S)-enantiomer against hCA II ([10]; ratio of KI values): five times more effective; higher clearance than its enantiomer ([11]; (R)- vs (S)-enantiomer): 65%; Cmax ([11]; plasma levels): 10700 ng/mL; MRT ([11]; plasma levels): 2 h; Tmax ([11]; plasma levels): 1.7 h; half-life ([11]; plasma levels): 0.6 h; Vd/F ([11]; plasma levels): 6.7 L/kg; AUC(0-inf) ([11]; 80 mg/kg, plasma levels): 24000 ng·h/mL; enantiostability (chiral inversion) [12]: no chiral inversion was observed; Protective Index (PI = TD50/ED50) (rats [13]): >13; TD50 [14]: > 500 mg/kg; Ki [15]: 522 ± 26 nM; Ki [16]: 197 ± 14 nM"
CC[C@@H](C)CCOC(=O)Nc1ccc(S(N)(=O)=O)cc1 [(R)-MSPC],34.1 ± 2.5,134 [108–158] mg/kg,3.4,39 [31–44] mg/kg,30 [22–37] mg/kg,810 ± 55,170 ± 9,3.3 ± 0.2,–,–,–,–,–,–,–,–,–,–,–,–,–
CC[C@H](C)CCOC(=O)Nc1ccc(S(N)(=O)=O)cc1 [(S)-MSPC],130 ± 8,149 [121–157] mg/kg,3.5,43 [33–52] mg/kg,24 [17–29] mg/kg,593 ± 42,744 ± 36,20.3 ± 1.4,–,–,–,–,–,–,–,–,–,–,–,–,–
CC[C@H](C)OC(=O)Nc1ccc(S(N)(=O)=O)cc1 [(S)-MBPC],–,–,–,–,–,–,–,–,71.8 ± 6.5,19,51500,52000,26.7,15200,4.2,1.66,0.9,5,34.9 ± 1.4,33.3,"times more effective than the (R)-enantiomer against hCA I ([7]; ratio of KI values): 2.9 times; Kp ([9]; brain): 1.32; Cmax ([11]; plasma levels): 12700 ng/mL; MRT ([11]; plasma levels): 2.7 h; Tmax ([11]; plasma levels): 1 h; half-life ([11]; plasma levels): 1.2 h; Vd/F ([11]; plasma levels): 5.7 L/kg; AUC(0-inf) ([11]; 80 mg/kg, plasma levels): 40000 ng·h/mL; AUCinf ([11]; plasma levels, 80 mg/kg): 39600 ng·h/mL; enantiostability (chiral inversion) [12]: no chiral inversion was observed; Protective Index (PI = TD50/ED50) (rats [13]): >11; TD50 [14]: > 200 mg/kg; Ki [15]: 249 ± 13 nM; Ki [16]: 53.3 ± 2.9 nM; times more effective than the (R)-enantiomer against hCA VII ([16]; ratio of KI values): 3.7 times"
CCC(C)OC(=O)Nc1ccc(S(N)(=O)=O)cc1 (racemic) [Racemic-MBPC],–,–,–,–,–,–,–,–,97.1 ± 5.3,25,47800,48000,28.3,16500,2,1.33,0.7,3.4,20.2 ± 1.5,41.7,"Kp ([9]; brain/plasma): 1.49; Cmax ([11]; plasma levels): 15300 ng/mL; MRT ([11]; plasma levels): 1.7 h; Tmax ([11]; plasma levels): 0.33 h; half-life ([11]; plasma levels): 0.5 h; Vd/F ([11]; plasma levels): 4.3 L/kg; AUC(0-inf) ([11]; 80 mg/kg, plasma levels): 32000 ng·h/mL; Protective Index (PI = TD50/ED50) (rats [13]): >20; TD50 [14]: > 500 mg/kg; Ki [15]: 432 ± 28 nM; Ki [16]: 121 ± 8 nM"
